Where a SMILES comes first, the peptide text is derived from it.
Assays:
mushroom tyrosinase = mushroom tyrosinase (Agaricus bisporus, UniProt C7FF04); experiment: Mushroom tyrosinase activity assay (L-DOPA oxidation, diphenolase); format: biochemical; conditions: L-DOPA substrate, up to 500 μM
Procedure: The inhibitory effect on mushroom tyrosinase was determined spectrophotometrically via L-DOPA oxidation. The reaction mixture consisted of 20 μL of hdTIPs, 140 μL of 100 mM sodium phosphate buffer (pH6.8) and 40 μL of 200 units/mL mushroom tyrosinase (EC 1.14.18.1; Sigma, Saint Louis, USA) placed in a 96-well microplate, then incubated for 10 min. After that, 20 μL of 5mM L-DOPA were mixed into each well over 20 min. Furthermore, the amount of dopachrome produced absorbance was measured at 475 nm. In addition, KA was used as the positive control at the same concentrations and conditions to hdTIPs. This method was modified from Kim et al..
The mushroom tyrosinase inhibitory activity was calculated with the following equation: % Mushroom tyrosinase inhibition=[(C)−(S)/(C)]×100, where, C represents the OD475 of control and S is the OD475 of sample. All experiments were performed in triplicate to determine the IC50 of the samples.

cellular tyrosinase = target: T1, cellular tyrosinase (Mus musculus, UniProt P11344); experiment: Intracellular (cellular) tyrosinase activity assay in UV-induced B16F10 cells; format: cell-based, murine; conditions: 70 μM peptide, UVA/UVB-induced B16F10 cells, triplicate
T1 construct: the harvested cells were lysed in cell extraction buffer; endogenous in cells; host or cells: B16F10 murine melanoma cells, UVA/UVB-induced
T1 sequence (P11344 19-533): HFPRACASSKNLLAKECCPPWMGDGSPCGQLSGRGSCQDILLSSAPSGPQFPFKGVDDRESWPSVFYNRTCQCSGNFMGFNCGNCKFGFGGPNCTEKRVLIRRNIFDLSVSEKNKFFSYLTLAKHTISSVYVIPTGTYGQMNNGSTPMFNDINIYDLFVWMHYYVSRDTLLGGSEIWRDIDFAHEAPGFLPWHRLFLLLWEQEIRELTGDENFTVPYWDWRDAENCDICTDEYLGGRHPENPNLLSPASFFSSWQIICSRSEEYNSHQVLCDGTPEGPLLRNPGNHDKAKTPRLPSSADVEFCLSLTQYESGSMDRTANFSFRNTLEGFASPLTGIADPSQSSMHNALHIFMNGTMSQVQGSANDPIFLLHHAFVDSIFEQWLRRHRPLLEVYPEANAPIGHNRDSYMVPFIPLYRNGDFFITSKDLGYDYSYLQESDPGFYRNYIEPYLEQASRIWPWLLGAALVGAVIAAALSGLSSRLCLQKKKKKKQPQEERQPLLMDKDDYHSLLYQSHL
Procedure: Tyrosinase activity was measured based on Dopa oxidase activity by estimating the dopachrome production according to the method by Qiao et al., 2012 [54], with some modifications. B16F10 cells were seeded at 5 × 10^6 cells/mL in 24-well plates. […] Each well was then washed and replaced with PBS 600 μL and induced with UVA (314-400 nm, 3.0 W) and UVB (280-315 nm, 13.6 W) using OSRAM (Ultra-Vitalux, Germany) for 22 s (0.32 J/cm^2). After that, the cells were incubated with medium 600 μL/well for a further 24 h. Then, the cells were trypsinized and the harvested cells were lysed in cell extraction buffer. After normalized protein concentration, 10 μL of each lysate supernatant was aliquoted into a 96-well plate and shaking incubated in dark conditions with 1 mM L-DOPA 90 μL in PBS at 37 °C at 280 rpm for 10 min. The absorbance was measured at 475 nm and all experiments were performed in triplicate to determine the IC50 of the samples. The cellular tyrosinase inhibitory activity was calculated with the following equation: % Cellular tyrosinase inhibition=[(C)-(S)/(C)]×100, where, C are defined as in the previous section.

B16F10 melanoma cells = experiment: Melanin content assay in UV-induced B16F10 cells; format: cell-based, murine; conditions: 70 μM peptide, UVA/UVB-induced B16F10 cells, triplicate
Procedure: Cellular melanin content was measured using a modified method by Jegal, et al.. B16F10 cells were seeded at 5 × 10^5 cells/mL in 24-well plates. […] After that, the cells in each well were washed and replaced by PBS. The UV stimulation process was performed by the exposure to UVA (314-400 nm, 3.0 W) and UVB (280-315 nm, 13.6 W) for 22 s. Then, PBS was replaced with media and further incubated for 24 h. The UV-stimulated cells were then trypsinized and centrifuged at 1500 rpm for 5 min. The cell pellet was then dissolved in 2 M NaOH at 60 °C for 1 h to solubilize the melanin. The melanin content was estimated by measuring the absorbance at 405 nm. The melanin content was calculated with the following equation: % Melanin content=(S)/(C)×100, where, S is the OD405 of sample and C represents the OD405 of control. All experiments were performed in triplicate.

[1] = system: superoxide dismutase (SOD); experiment: Antioxidative enzyme activity, superoxide dismutase (assay kit); format: cell-based, murine; conditions: 70 μM, UV-exposed B16F10 cells
Procedure: (§1) To determine the antioxidant activity, the centrifugation precipitate from Section 4.6 was dissolved in 1 mL of 1 M NaOH containing 10% DMSO at 80 °C for 1 h. Various assay kits, all from Beijing Solarbio Science & Technology Co., Ltd., Beijing, China, were used to measure the quantity of reduced reactive oxygen species (ROS) and the activity of superoxide dismutase (SOD), catalase (CAT), and glutathione peroxidase (GPx) according to the methods by Hu et al..

[2] = system: glutathione peroxidase (GPx); experiment: Antioxidative enzyme activity, glutathione peroxidase (assay kit); format: cell-based, murine; conditions: 70 μM, UV-exposed B16F10 cells
Procedure: as §1

tyrosinase [3] = conditions: KNN machine learning model, 425 sequence features; cited from earlier work
From the text: (§2) Table 1 Abalone predicted TIPs by KNN and RF-based predictors and the predicted antioxidant scores by AnOxPePred 1.0 program. | column: Predicted Anti-Tyrosinase Probability / KNN Predictor || Previously, our research team proposed the in-house machine learning-based anti-tyrosinase prediction tool, which provides thousands of potential peptides. The probability scores of all 1079 peptides from KNN-based and RF-based models can be found in the supplementary file of the previous article by Kongsompong et al.. The KNN and RF predictors were trained and tested against 133 peptides with known anti-tyrosinase properties with 97% and 99% accuracy. The predictions of both models were based on the numeric matrix of 425 features calculated from amino acid composition (20 featur ...

tyrosinase [4] = conditions: RF machine learning model, 425 sequence features; cited from earlier work
From the text: as §2, with “/ RF” for “/ KNN”

Chain of mushroom tyrosinase (C7FF04 1-392): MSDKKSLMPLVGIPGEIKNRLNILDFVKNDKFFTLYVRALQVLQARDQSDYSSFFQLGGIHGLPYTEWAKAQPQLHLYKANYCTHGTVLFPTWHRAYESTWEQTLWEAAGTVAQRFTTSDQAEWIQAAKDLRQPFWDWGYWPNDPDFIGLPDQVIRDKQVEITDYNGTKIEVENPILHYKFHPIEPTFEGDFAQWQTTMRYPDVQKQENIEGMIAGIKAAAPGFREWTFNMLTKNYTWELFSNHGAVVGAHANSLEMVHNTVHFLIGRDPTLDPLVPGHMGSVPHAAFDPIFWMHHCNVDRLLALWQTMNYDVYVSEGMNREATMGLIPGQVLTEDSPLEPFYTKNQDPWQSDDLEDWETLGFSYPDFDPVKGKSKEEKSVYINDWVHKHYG
Chain of mushroom tyrosinase (G1K3P4 1-150 partner): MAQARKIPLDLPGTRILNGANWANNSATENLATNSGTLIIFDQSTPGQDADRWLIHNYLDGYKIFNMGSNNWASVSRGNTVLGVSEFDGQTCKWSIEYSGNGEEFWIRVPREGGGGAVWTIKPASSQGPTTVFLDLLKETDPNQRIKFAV

CSCC[C@H](NC(=O)[C@H](CCC(N)=O)NC(=O)[C@H](CO)NC(=O)[C@@H](N)[C@@H](C)O)C(=O)N[C@@H](CO)C(=O)N[C@@H](CCCNC(=N)N)C(=O)N[C@@H](CO)C(=O)N[C@@H](CO)C(=O)N[C@@H](CO)C(=O)N[C@@H](CCCNC(=N)N)C(=O)O [KNN2] (H-TSQMSRSSSR-OH; N-terminus and C-terminus assumed)
inhibitory effect on mushroom tyrosinase (diphenolase activity) (mushroom tyrosinase): did not show any inhibition
inhibition of cellular tyrosinase (cellular tyrosinase): fourth-most-effective inhibitor
inhibition of melanin content (B16F10 melanoma cells): fourth-most-effective inhibitor
effect on SOD activity [1]: elevated
effect on GPx activity [2]: elevated
Predicted Anti-Tyrosinase Probability KNN Predictor (tyrosinase [3]): 1.00
Predicted Anti-Tyrosinase Probability RF Predictor (tyrosinase [4]): 0.37
